Where a SMILES comes first, the peptide text is derived from it. The star is where a group is joined. 5FAM = O=C1OC2(c3ccc(O)cc3Oc3cc(O)ccc32)c2ccc(C(=O)*)cc21; PEG3 = NCCOCCOCCOCCC(=O)O
How the values were obtained:
[1] = biological target: mouse PKA catalytic subunit (Cα) (Mus musculus, UniProt P05132); test: In vitro PKA-C activity assay; format: biochemical; conditions: read-out: IC50 for PKA-C activity; recombinant SMO pCT; apparent IC50; 15–30 nM Cα, 260 μM Kemptide, 100 μM ATP, 10 mM MgCl2, 100 mM MOPS pH 7; 3 min preincubation, room temperature; two independent experiments
SMO [2] = test: Immunofluorescence of SMO and endogenous PKA-C in NIH3T3 cilia
PKA-Cα [3] = test: BRET analysis of SMO / PKA-C interactions in HEK293 cells; format: cell-based, mouse; conditions: nanoluc-tagged SMO657 with YFP-tagged PKA-Cα, mean, n = three
smo−/− zebrafish = test: Slow muscle specification in smo−/− zebrafish embryos; format: in vivo, Danio rerio; conditions: mRNA injection; Prox1 / Engrailed staining; <26 hours post-fertilization
GLI = GLI transcriptional reporter assay in Smo−/− MEFs; format: cell-based, mouse; conditions: ShhN conditioned medium, 2 days, n = three
human PKA-Cα = human PKA-Cα (Homo sapiens, UniProt P17612); test: Fluorescence polarization, FAM-labeled SMO peptide binding to human PKA-Cα; conditions: human or mouse PKA-Cα
PKA-Cα [4] = test: BRET analysis of SMO / PKA-C interactions in IMCD3 cells; format: cell-based, mouse; conditions: PKA-C expressed at near-endogenous levels, n = three
PKA-Cα [5] = test: SMO / PKA-C colocalization in cilia of IMCD3 cells; format: cell-based; conditions: WRR mutation, SAG21k 1 μM overnight
SMO [6] = conditions: inverse agonist; cited from earlier work
mouse PKA-Cα = mouse PKA-Cα (Mus musculus, UniProt P05132); test: Surface plasmon resonance; conditions: SPR

## recombinant SMO pCT: residues 565–657 of mouse SMO, cleaved from MBP-His8-SUMO tags
[1]
  IC50: 10.9 µM

## CNC1CCC(N(Cc2cccc(-c3ccncc3)c2)C(=O)c2sc3ccccc3c2Cl)CC1 (stereo not shown) [SAG]
SMO [2]; NIH3T3 stably expressing SMO-V5-TurboID, SAG 100 nM, anti-V5
  accumulation of SMO in cilia: dramatic accumulation of SMO in cilia

## wild-type SMO657: nanoluc-tagged truncated SMO construct
PKA-Cα [3]
  BRET with PKA-C: strong, specific BRET

## wild-type SMO: full-length wild-type SMO construct
smo−/− zebrafish
  muscle specification in smo−/− zebrafish: restored correct muscle specification
GLI
  GLI transcriptional response: strong GLI transcriptional responses to Hh ligands

## CC[C@H](C)[C@H](NC(=O)[C@H](C)NC(=O)CNC(=O)[C@H](CCCNC(=N)N)NC(=O)[C@H](CCCNC(=N)N)NC(=O)[C@H](C)NC(=O)[C@@H](NC(=O)[C@H](CCSC)NC(=O)[C@H](CCCCN)NC(=O)[C@@H](NC(=O)[C@@H](NC(=O)[C@H](Cc1c[nH]cn1)NC(=O)[C@H](CCC(N)=O)NC(=O)[C@H](C)NC(=O)[C@H](Cc1c[nH]c2ccccc12)NC(=O)[C@H](C)NC(=O)[C@H](CO)NC(=O)[C@H](CO)NC(=O)[C@@H](NC(=O)[C@H](CC(=O)O)NC(=O)[C@H](C)NC(=O)[C@H](CO)NC(=O)CCOCCOCCOCCNC(=O)c1ccc2c(c1)C(=O)OC21c2ccc(O)cc2Oc2cc(O)ccc21)C(C)C)C(C)C)[C@@H](C)O)C(C)C)C(=O)N[C@@H](CC(C)C)C(=O)N1CCC[C@H]1C(=O)O ({5FAM-PEG3}-SADVSSAWAQHVTKMVARRGAILP-OH)
Human PKA-Cα
  ATP dependence of interaction with PKA-Cα: strongly ATP-dependent

## SMO WRR: full-length SMO with WRR mutation (SADVSSAAAQHVTKMVAAAGAILPQDVSVTPVATPVPP)
PKA-Cα [4]
  interaction with PKA-C (BRET): prevented interaction between SMO and PKA-C
PKA-Cα [5]
  colocalization with PKA-C in cilia: dramatically reduced colocalization in cilia
GLI
  GLI transcriptional response: almost completely devoid of activity

## CC1=C2C[C@H]3[C@@H](CC=C4C[C@@H](O)CC[C@@]43C)[C@@H]2CC[C@]12O[C@@H]1C[C@H](C)CN[C@H]1[C@H]2C [cyclopamine]
SMO [2]; NIH3T3, cyclopamine 5 μM, 8 hours
  SMO colocalization with endogenous PKA-C in primary cilium: did not occur
SMO [6]
  effect on SMO (accumulation in cilia, conformation): induces SMO to accumulate in cilia but traps it in an inactive conformation

## SMO pCT: recombinant protein encompassing the entire 93 amino-acid SMO pCT, GST-tagged for SPR
Mouse PKA-Cα; ATP and MgCl2 omitted, PKA-Cα […]
  ATP/MgCl2 dependence of PKA-C binding: depended strictly on ATP and MgCl2
Mouse PKA-Cα; mouse PKA-Cα, ATP and MgCl2 present
  binding to PKA-Cα: bound specifically to mouse PKA-Cα

Reference: PMC9696579 (Nature structural & molecular biology, 2022)
